Assay results from patent US9833506B2, “Vaccine—screening method” (priority 2011, dated 2017).
Like-named read-outs stand apart in the source and are kept apart here.

Experiments:
Assay type in all cases: cell-based, human
[1] = tested on: CD4+ T cell lines killing peptide pulsed autologous EBV-transformed B cell lines; assay: Chromium release assay, perforin-dependent cytotoxicity of CD4+ T cell lines; details: CD4+ T cells incubated 2 h with 100 nM concanamycin; 51Cr release; FIG. 7b
[2] = tested on: T cells in PBMC of H3N2 (A/Wisconsin/67/05) challenge study subjects; details: for SFC/million PBMC (range): IFN-γ ELISPOT, peptide 2 μg/ml, 300,000 PBMC/well, background subtracted; for SFC/million PBMC (range) / CD4 or CD8 dependency: baseline samples; for CD4 or CD8 dependency: second ELISPOT after CD8 depletion, 4 = CD4, 8 = CD8; for Number positive (%): percent of subjects responding to the peptide at baseline; for Number positive: subjects responding to the peptide at baseline, of 8 subjects with peptides identified
[3] = tested on: T cells in PBMC of H1N1 (A/Brisbane/59/07) challenge study subjects; details: for SFC/million PBMC (range): IFN-γ ELISPOT, peptide 2 μg/ml, 300,000 PBMC/well, background subtracted; for Positive no(%): percent of subjects responding to the peptide at baseline; for Positive no: subjects responding to the peptide at baseline, of 7 subjects
[4] = baseline samples, second ELISPOT after CD8 depletion, 4 = CD4, 8 = CD8

| Molecule | SFC/million PBMC (range) [2] | CD4 or CD8 dependency [2] | Number positive (%) [2] [%] | Number positive [2] | other results |
| --- | --- | --- | --- | --- | --- |
| C/C=C/[C@H]1O[C@@](O)([C@@H](C)[C@H](O)[C@H](C)[C@H]2OC(=O)/C(OC)=C/C(C)=C/[C@@H](C)[C@@H](O)[C@@H](CC)[C@@H](O)[C@H](C)C/C(C)=C/C=C/[C@@H]2OC)C[C@@H](O)[C@@H]1C [concanamycin] |  |  |  |  | Sensitivity of CD4 T cell killing of autologous target cells to concanamycin [1]: sensitive |
| EIRASVGKMIDGIGRFYI [NP05] | 141.5 (35-248) SFC/million PBMC | 4 | 26 | 2 |  |
| GENGRKTRIAYERMCNIL [NP27] |  |  |  |  | CD4 or CD8 dependency [3]: 8; SFC/million PBMC, days after challenge 7 [3]: 157 SFC/million PBMC; SFC/million PBMC, days after challenge 28 [3]: 10 SFC/million PBMC; SFC/million PBMC, days after challenge −2 [3]: 30 SFC/million PBMC; SFC/million PBMC (range) ([3]; baseline samples): 30 SFC/million PBMC; CD4 or CD8 dependency [3, 4]: 8; Positive no(%) [3]: 14%; Positive no [3]: 1 |
| GKWMRELVLYDKEEIRRI [NP15] | 93 (45-141) SFC/million PBMC | 4 | 26 | 2 |  |
| GQTSVQPTFSVQRNLPF [NP57] | 10 SFC/million PBMC | 4 | 13 | 1 |  |
| HRSHRQMVATTNPLIKH [Peptide M23] | 158 SFC/million PBMC | 4 | 13 | 1 |  |
| IAYERMCNILKGKFQTAA (Influenza A virus) [NP28, synthetic peptide of H1N1 influenza A NP protein, amino acid position 217-234] |  |  |  |  | CD4 or CD8 dependency [3]: 8; SFC/million PBMC, days after challenge 7 [3]: 67 SFC/million PBMC; SFC/million PBMC, days after challenge 28 [3]: 10 SFC/million PBMC; SFC/million PBMC, days after challenge −2 [3]: 40 SFC/million PBMC; SFC/million PBMC (range) ([3]; baseline samples): 40 SFC/million PBMC; CD4 or CD8 dependency [3, 4]: 8; Positive no(%) [3]: 14%; Positive no [3]: 1 |
| IKHENRMVLASTTAKAM (Influenza A virus) [Peptide M25, synthetic peptide of H3N2 influenza A M protein, amino acid position 173-189] | 118 SFC/million PBMC | 4 | 13 | 1 |  |
| KFQTAAQRAMVDQVRESR (Influenza A virus) [NP32, synthetic peptide of H3N2 influenza A NP protein, amino acid position 229-246] | 104 SFC/million PBMC | 8 | 13 | 1 |  |
| KLSDHEGRLIQNSLTIEK [NP08] | 26 SFC/million PBMC | 4 | 13 | 1 |  |
| LKREITFHKAKEIALSY [Peptide M15] | 67 (35-96) SFC/million PBMC | 4 | 38 | 3 |  |
| PIYRRVDGKWMRELVLY [NP14] | 113 (45-181) SFC/million PBMC | 4 | 26 | 2 |  |
| QPTFSVQRNLPFDKTTIM [NP52] |  |  |  |  | SFC/million PBMC (range) ([3]; baseline samples): 26 SFC/million PBMC; CD4 or CD8 dependency [3, 4]: 4; Positive no(%) [3]: 14%; CD4 or CD8 dependency ([3]; subject B017(2C)): 4; SFC/million PBMC, days after challenge 7 ([3]; subject B017(2C), day 7): 76 SFC/million PBMC; SFC/million PBMC, days after challenge 28 ([3]; subject B017(2C), day 28): 10 SFC/million PBMC; SFC/million PBMC, days after challenge −2 ([3]; subject B017(2C), day −2): 26 SFC/million PBMC; Positive no [3]: 1 |
| RMVLSAFDERRNKYLEEH (Influenza A virus) [NP09, synthetic peptide of H1N1 influenza A NP protein, amino acid position 65-82] |  |  |  |  | CD4 or CD8 dependency [3]: 4; SFC/million PBMC, days after challenge 7 [3]: 187 SFC/million PBMC; SFC/million PBMC, days after challenge 28 [3]: 113 SFC/million PBMC; SFC/million PBMC, days after challenge −2 [3]: 38 SFC/million PBMC; SFC/million PBMC (range) ([3]; baseline samples): 38 SFC/million PBMC; CD4 or CD8 dependency [3, 4]: 4; Positive no(%) [3]: 14%; Positive no [3]: 1 |
| SNLNDATYQRTRALVR (Influenza A virus) [NP20, synthetic peptide of H3N2 influenza A NP protein, amino acid position 141-156] | 391 SFC/million PBMC | 8 | 13 | 1 |  |
| TFSVQRSLPFEKSTIMAA [NP58] | 10 SFC/million PBMC | 4 | 13 | 1 |  |
| TYQRTRAVLRTGMDPRM (TYQRTRALVRTGMDPRM; Influenza A virus) [NP21, synthetic peptide of H3N2 influenza A NP protein, amino acid position 147-163] | 331 SFC/million PBMC | 8 | 13 | 1 |  |
| VKLYRKLKREITFHGAKE (Influenza A virus) [Peptide M13, synthetic peptide of H1N1 influenza A M protein, amino acid position 97-114] |  |  |  |  | CD4 or CD8 dependency [3]: 4; SFC/million PBMC, days after challenge 7 [3]: 70 SFC/million PBMC; SFC/million PBMC, days after challenge 28 [3]: 10 SFC/million PBMC; SFC/million PBMC, days after challenge −2 [3]: 30 SFC/million PBMC; SFC/million PBMC (range) ([3]; baseline samples): 41 (30-52) SFC/million PBMC; CD4 or CD8 dependency [3, 4]: 4; Positive no(%) [3]: 28%; CD4 or CD8 dependency ([3]; subject B017(2C)): 4; SFC/million PBMC, days after challenge 7 ([3]; subject B017(2C), day 7): 316 SFC/million PBMC; SFC/million PBMC, days after challenge 28 ([3]; subject B017(2C), day 28): 33 SFC/million PBMC; SFC/million PBMC, days after challenge −2 ([3]; subject B017(2C), day −2): 52 SFC/million PBMC; Positive no [3]: 2 |
